This is an account of results in US9211311B2, “Methods for the treatment of neurodegenerative disorders” (priority 2010, dated 2015).

For the data set, the system named is male patients exhibiting PD-induced symptoms. The experiment in a line: Motor portion of the Unified Parkinson's Disease Rating Scale (UPDRS) before and after intranasal oxytocin. In kind it is in vivo, human. Particulars: 40 IU intranasal oxytocin; for UPDRS total score after oxytocin therapy: off medications, reassessed 45 minutes to one hour after dosing, items rated 0-4, lower = less severe. How it is done:
The participants were in their “off” period, wherein they were taken off their current medications prior to oxytocin therapy. During the experiment, each participant was given 40 IU ([…]) of intranasal oxytocin. The synthetic form of oxytocin was administered by way of an inhaler, such as those used in nasal spray decongestants. Five pumps of the inhaler were dispensed into the left nostril of the participants; the participants were asked to inhale deeply through the nose. Five more pumps were dispensed into the right nostril of the participants and again the participants were asked to inhale deeply. This process was repeated so that, in total, the participants received forty pumps of the inhaler, twenty per nostril.
Immediately following oxytocin infusion, the participants were given a battery of physical and cognitive tests, lasting about fifteen to twenty minutes. These tests included the Motor portion of the Unified Parkinson's Disease Rating Scale (UPDRS) as well as a cognitive test used to establish the mental and emotional status of the participants. For each test, the participants were rated on a scale of zero to four, with four being the symptoms at its most severe state.
After administration of oxytocin, the participants were asked to wait for 45 minutes to one hour, wherein they passed the time by reading, conversing or simply relaxing. Subsequently, the motor skills of the participants were assessed again using the UPDRS. The administration of the UPDRS the first time was to quantifiably evaluate the patient's symptoms uninfluenced by oxytocin infusion, whereas the second administration of the UPDRS test served to quantifiably assess the motor condition of the patient under the influence of oxytocin.
The participants remained under direct supervision throughout the experiment to ensure their comfort and well-being. Once the experimental procedure was completed, the participants were able to leave the clinic and were asked to continue taking their normal medications. The participants were not in any way restricted in their activities for the rest of the day.

Consider `CC[C@H](C)[C@@H]1NC(=O)[C@H](Cc2ccc(O)cc2)NC(=O)[C@@H](N)CSSC[C@@H](C(=O)N2CCC[C@H]2C(=O)N[C@@H](CC(C)C)C(=O)NCC(N)=O)NC(=O)[C@H](CC(N)=O)NC(=O)[C@H](CCC(N)=O)NC1=O` [oxytocin], for which the “UPDRS total score after oxytocin therapy” value (participant 1, initial total score 24) is given as 17; the “UPDRS total score after oxytocin therapy” value (participant 2, initial total score 37.5) turned out to be 34.5; the “UPDRS total score after oxytocin therapy” value (participant 3, initial total score 17.5) came to 9.5. Further, the “decrease in UPDRS total score after oxytocin therapy” value (“decrease in UPDRS total score” below) (participant 1, versus initial total score 24) came out at 30%; the “decrease in UPDRS total score” value (participant 2, versus initial total score 37.5) was determined as 8%; the “decrease in UPDRS total score” value (participant 3, versus initial total score 17.5) was determined as 50%. Further, the “lasting effects due to the administration of oxytocin” value (three male PD patients, observed under supervision throughout the experiment) is reported as “not any lasting effects apparent”.
